Source: patent US9255106B2, “Substituted [1,2,4]triazolo[4,3-a]pyrazines as PARP-1 inhibitors” (SHANGHAI INSTITUTE OF MATERIA MEDICA, CHINESE ACADEMY OF …, priority 2012, dated 2016)
Marks after values point to notes of the source that are not given here.

Assays:
V8 cell = assay: PARP1 inhibitory activity at cellular level (proliferation inhibition model); details: read-out: PARP1 inhibitory activity at cellular level (%)
Capan-1 = assay: Inhibition of tumor cell proliferation, Capan-1; details: Homo sapiens
OVCAR-8 = assay: Inhibition of tumor cell proliferation, OVCAR-8; details: Homo sapiens
U87-MG = assay: Inhibition of tumor cell proliferation, U87-MG; details: Homo sapiens, U-87 MG
[1] = test system: MDA-MB-436 human breast cancer; assay: Antitumor activity in vivo, subcutaneously transplanted tumor in MDA-MB-436 human breast cancer nude mice; details: for TV (mean ± SD) d0: d0 (at grouping); for RTV (mean ± SD) / T/C (%) / TV (mean ± SD) d21 / number of animals in which tumor regressed: d21; for number of animals in which tumor regressed: 6 animals
Description: A tumor tissue in vigorous growing period was cut into about 1.5 mm^3, and inoculated subcutaneously into right armpit of nude mice under a sterile condition. The diameter of subcutaneous transplant tumor in nude mice was measured by vernier caliper. When the tumor grew to 100-200 mm^3, the animals were randomly grouped. […] Solvent control group was administered saline in same volume. During the whole experiment, the tumor diameter was measured twice a week, while the body weight of mice was weighed simultaneously. The formula to calculate tumor volume (TV) was TV=½*a*b^2, wherein a and b respectively referred to length and width. Relative tumor volume (RTV) was calculated according to the measurements, and the formula is RTV=Vt/V0, wherein V0 is the tumor volume measured when the mice were grouped (i.e. d0), and Vt is the tumor volume measured each time.

PC-3 = assay: Inhibition of tumor cell proliferation, PC-3; details: Homo sapiens
U251 = assay: Inhibition of tumor cell proliferation, U251; details: Homo sapiens, U-251
[2] = in vivo; cited from earlier work

Compound | inhibition at 0.0016 µM (V8 cell) [%] | inhibition at 0.008 µM (V8 cell) [%] | inhibition at 0.04 µM (V8 cell) [%] | inhibition at 0.2 µM (V8 cell) [%] | inhibition at 1 µM (V8 cell) [%] | other results
COC1CN(C(=O)c2cc(Cc3n[nH]c(=O)c4ccccc34)ccc2F)Cc2nnc(C(F)(F)F)n21 (centres unmarked) [Compound S10] | 11.6 | 10.5 | 31.8 | 67.5 | 78.6 | –
CC1c2nnc(C(F)(F)F)n2C(C)CN1C(=O)c1cc(Cc2n[nH]c(=O)c3ccccc23)ccc1F (centres unmarked) [Compound S5] | -5.06 | -3.01 | 23.5 | 63.8 | 73.5 | –
CC1c2nnc(C(F)(F)F)n2CCN1C(=O)c1cc(Cc2n[nH]c(=O)c3ccccc23)ccc1F (centres unmarked) [Compound S4] | -1.36 | 8.66 | 53.1 | 75.5 | 75.7 | –
CC1c2nnc(CF)n2C(C)CN1C(=O)c1cc(Cc2n[nH]c(=O)c3ccccc23)ccc1F (centres unmarked) [Compound S19] | 2.09 | -2.17 | 3.32 | 0.4 | 0.69 | –
CC1CN(C(=O)c2cc(Cc3n[nH]c(=O)c4ccccc34)ccc2F)Cc2nnc(C(F)F)n21 (centres unmarked) [Compound S17] | 4.61 | 12.1 | 65.6 | 76.5 | 79.7 | –
CC1CN(C(=O)c2cc(Cc3n[nH]c(=O)c4ccccc34)ccc2F)Cc2nnc(CF)n21 (centres unmarked) [Compound S18] | 7.63 | 54.1 | 77 | 77 | 78.4 | –
CC1CN(C(=O)c2cc(Cc3n[nH]c(=O)c4ccccc34)ccc2F)Cc2nnc(C(F)(F)F)n21 (racemic) [Compound S3] | -3.11 | 33.1 | 61.2 | 70.1 | 74.4 | IC50 (Capan-1): 7.6 nM; IC50 (OVCAR-8): 10500 nM; IC50 (U87-MG): 228 nM; TV (mean ± SD) d0 ([1]; 25 mg/kg, po, qd × 21): 127 ± 30 mm^3; RTV (mean ± SD) ([1]; 25 mg/kg, po, qd × 21): 1.40 ± 0.71**; T/C (%) ([1]; 25 mg/kg, po, qd × 21): 9.80%; TV (mean ± SD) d21 ([1]; 25 mg/kg, po, qd × 21): 165 ± 57 mm^3; number of animals in which tumor regressed ([1]; 25 mg/kg, po, qd × 21): 3; tumor outcome ([1]; 100 mg/kg): the tumor completely disappeared; side effects ([1]; 100 mg/kg and 25 mg/kg, po, qd × 21): no significant side effects; TV (mean ± SD) d0 ([1]; 100 mg/kg, po, qd × 21): 128 ± 36 mm^3; RTV (mean ± SD) ([1]; 100 mg/kg, po, qd × 21): 0.08 ± 0.04**; T/C (%) ([1]; 100 mg/kg, po, qd × 21): 0.59%; TV (mean ± SD) d21 ([1]; 100 mg/kg, po, qd × 21): 11 ± 7 mm^3; number of animals in which tumor regressed ([1]; 100 mg/kg, po, qd × 21): 1; IC50 (PC-3): 995 nM
O=C(c1cc(Cc2n[nH]c(=O)c3ccccc23)ccc1F)N1CCN(C(=O)C2CC2)CC1 [AZD2281, olaparib, reference compound] | – | – | – | – | – | IC50 (Capan-1): 729 nM; IC50 (OVCAR-8): 12400 nM; IC50 (U87-MG): 2920 nM; TV (mean ± SD) d0 ([1]; 100 mg/kg, po, qd × 21): 127 ± 37 mm^3; RTV (mean ± SD) ([1]; 100 mg/kg, po, qd × 21): 0.95 ± 0.78**; T/C (%) ([1]; 100 mg/kg, po, qd × 21): 6.65%; TV (mean ± SD) d21 ([1]; 100 mg/kg, po, qd × 21): 120 ± 118 mm^3; IC50 (U251): 1190 nM; IC50 (PC-3): 3920 nM; bioavailability [2]: < 15%; half-life time [2]: < 1 h
